pKi: −log10 of the molar value.
Columns and labels:
[1] = molecular target: T1, Beta-hexosaminidase subunit beta (Homo sapiens, UniProt P07686); assay: Enzyme Inhibition Assay; settings: pH 4.25; 30 °C
T1 sequence (P07686 whole entry): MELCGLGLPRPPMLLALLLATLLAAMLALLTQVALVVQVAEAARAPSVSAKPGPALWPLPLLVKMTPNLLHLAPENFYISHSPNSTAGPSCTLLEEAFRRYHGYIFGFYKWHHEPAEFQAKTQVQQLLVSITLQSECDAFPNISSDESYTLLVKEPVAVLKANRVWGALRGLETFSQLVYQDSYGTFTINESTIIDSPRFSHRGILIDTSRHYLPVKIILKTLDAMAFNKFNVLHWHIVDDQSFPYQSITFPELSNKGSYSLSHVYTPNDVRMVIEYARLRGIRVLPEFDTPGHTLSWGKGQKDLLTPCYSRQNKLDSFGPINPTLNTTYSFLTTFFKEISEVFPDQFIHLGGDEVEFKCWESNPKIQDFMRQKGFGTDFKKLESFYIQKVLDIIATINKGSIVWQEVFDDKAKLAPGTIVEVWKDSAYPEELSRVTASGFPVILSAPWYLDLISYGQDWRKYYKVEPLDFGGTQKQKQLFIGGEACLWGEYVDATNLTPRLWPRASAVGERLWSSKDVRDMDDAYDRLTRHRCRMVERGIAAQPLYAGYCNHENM
Text: (§1) Enzyme inhibition activity assay using 4-methylumbelliferyl N-acetylglucosamine (MUG) as substrate.

Protein O-GlcNAcase = molecular target: T2, Protein O-GlcNAcase (Homo sapiens, UniProt O60502); assay: Enzyme Inhibition Assay; settings: pH 4.25; 30 °C
T2 sequence (O60502 whole entry): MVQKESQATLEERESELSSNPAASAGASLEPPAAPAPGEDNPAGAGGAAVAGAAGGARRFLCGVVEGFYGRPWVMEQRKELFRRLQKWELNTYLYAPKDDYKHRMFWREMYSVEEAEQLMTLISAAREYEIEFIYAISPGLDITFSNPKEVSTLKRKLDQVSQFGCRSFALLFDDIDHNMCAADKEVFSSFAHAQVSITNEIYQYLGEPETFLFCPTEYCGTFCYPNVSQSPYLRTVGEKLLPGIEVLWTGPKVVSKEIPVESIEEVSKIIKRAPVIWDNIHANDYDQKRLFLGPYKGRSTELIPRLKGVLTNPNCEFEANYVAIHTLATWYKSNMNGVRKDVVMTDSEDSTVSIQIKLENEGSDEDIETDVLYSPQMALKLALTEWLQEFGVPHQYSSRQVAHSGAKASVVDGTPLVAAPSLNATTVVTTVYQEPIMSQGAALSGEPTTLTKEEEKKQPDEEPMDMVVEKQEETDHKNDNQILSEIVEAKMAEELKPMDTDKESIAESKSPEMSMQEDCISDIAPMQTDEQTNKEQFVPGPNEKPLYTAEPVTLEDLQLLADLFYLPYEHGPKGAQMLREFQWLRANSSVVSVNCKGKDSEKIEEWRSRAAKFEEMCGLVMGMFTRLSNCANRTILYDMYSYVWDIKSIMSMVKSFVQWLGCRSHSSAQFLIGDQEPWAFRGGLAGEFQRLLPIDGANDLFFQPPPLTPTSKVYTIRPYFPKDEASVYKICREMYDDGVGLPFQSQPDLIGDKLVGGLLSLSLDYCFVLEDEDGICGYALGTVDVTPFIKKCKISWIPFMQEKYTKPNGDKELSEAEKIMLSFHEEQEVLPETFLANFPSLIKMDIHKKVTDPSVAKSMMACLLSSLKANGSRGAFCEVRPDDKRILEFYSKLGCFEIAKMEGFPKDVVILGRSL
Text: as §1

- pKi [1]: 6.27
- pKi (Protein O-GlcNAcase): 4.63
SMILES: CC(=O)N[C@H]1CN[C@H](CO)[C@@H](O)[C@@H]1O

Source: BindingDB's records for doi:10.1021/cb100011u (Academia Sinica, 2010)
